Measurements published in patent US20060079453A1, “Hla binding peptides and their uses” (priority 2002, published 2006).
No end group written: not given here.

Key:
Assay in all cases: biochemical
Type in all cases: binding
[1] = biological target: HLA-DR DRB1*0101 (DR1) (Homo sapiens, UniProt P01903+P01911, A100R/D57E/F55L/F60I/F76Y/I96L/L162R/M171V/P40L/Q125E/R42F/V115G/Y59C); settings: DRB1 *0101
[2] = biological target: HLA-DR DRB1*0301 (DR3) (Homo sapiens, UniProt P01903+P01911, A100K/A102G/A103R/A169T/F55Y/I96L/K41T/L162R/M171V/P40S/Q125H/Q178H/Q39Y/R42S/S66N/T106N/T262R/W38E/Y61H)
[3] = biological target: HLA-DR DRB1*0401 (DR4) (Homo sapiens, UniProt P01903+P01911, A100K/A169T/F76Y/I96L/K127E/L162R/M171V/N62H/P40V/Q125Y/R42H/S133A/S149N/S66Y/V115G/V209L/W38E); settings: DRB1 *0401
[4] = biological target: HLA-DR DRB1*0701 (DR7) (Homo sapiens, UniProt P01903+P01911, A100R/A102G/A103Q/D57E/D86V/E43K/F76Y/K127E/L162R/M171V/P40G/Q125H/Q99D/R33Q/R42Y/R54Q/S133A/S66F/T210M/V115G/Y107V/Y59L/Y89S); settings: DRB1 *0701
[5] = biological target: HLA-DR DRB1*0802 (DR8) (Homo sapiens, UniProt P01903+P01911, A100R/A103L/A169T/F76Y/H45Y/I96F/K41T/L162R/M171V/P40S/Q125H/Q178H/Q39Y/Q99D/R218S/R42G/S66Y/V115G/W38E)
[6] = biological target: HLA-DR DRB1*0901 (DR9) (Homo sapiens, UniProt P01903+P01911, A100R/A103E/D57H/D86V/F55Y/F60I/F76Y/I96F/K127E/L162R/M171V/P40D/Q125H/Q99R/R33Q/R42F/S133A/S66N/T210M/V115G/W38K/Y107V/Y59G/Y89S); settings: DRB1 *0901
[7] = biological target: HLA-DR DRB1*1302 (DR13) (Homo sapiens, UniProt P01903+P01911, A100E/A169T/K41T/L162R/M171V/P40S/Q125H/Q178H/Q39Y/Q99D/R42S/S66N/T262R/V115G/W38E/Y61H); settings: DRBI *1302
[8] = biological target: HLA-DR DRB1*1501 (DR15) (Homo sapiens, UniProt P01903+P01911); settings: DRBI *1501
[9] = biological target: HLA-DR DRB3*0101 (DR52) (Homo sapiens, UniProt P01903+P79483)
[10] = biological target: HLA-DR DRB4*0101 (DR53) (Homo sapiens, UniProt P01903+P13762, G164S); settings: DRB4 *0101
[11] = biological target: HLA-DR DRB5*0101 (DR51) (Homo sapiens, UniProt P01903+Q30154); settings: DRB5 *0101
[12] = biological target: HLA-DR DRB1*1101 (DR11) (Homo sapiens, UniProt P01903+P01911, A100R/A169T/A87E/I96F/K41T/L162R/M171V/P40S/Q125H/Q178H/Q39Y/Q99D/R42S/S66Y/T262R/V115G/W38E); settings: DRB1 *1101
Sequence of HLA-DR DRB1*1101 (DR11) (P01903 26-254 limits assumed, other chains not shown): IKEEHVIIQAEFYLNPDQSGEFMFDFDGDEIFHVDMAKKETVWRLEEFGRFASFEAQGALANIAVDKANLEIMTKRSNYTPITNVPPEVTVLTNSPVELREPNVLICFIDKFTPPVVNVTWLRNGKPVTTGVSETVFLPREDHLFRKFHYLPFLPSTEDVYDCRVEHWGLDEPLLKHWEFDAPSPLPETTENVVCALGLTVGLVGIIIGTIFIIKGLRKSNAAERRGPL

Sequence of HLA-DR DRB1*0301 (DR3) (P01903 26-254 limits assumed, other chains not shown): as above
Sequence of HLA-DR DRB1*1302 (DR13) (P01903 26-254 limits assumed, other chains not shown): as above

Sequence | IC50 [1] [µM] | IC50 [2] [µM] | IC50 [3] [µM] | IC50 [4] [µM] | IC50 [5] [µM] | IC50 [6] [µM] | IC50 [7] [µM] | IC50 [8] [µM] | IC50 [9] [µM] | IC50 [10] [µM] | IC50 [11] [µM] | IC50 [12] [µM]
EDFFKLERDMKINCS | 2.71 | 0.468 | 0.226 | 8.55 | 1.44 | > 52.3 | 3.19 | > 3.49 | 4.04 | 7.89 | 3.49 | –
GRLEYTLKDRRNFDI | 7.25 | 0.03 | – | 4.96 | 4.92 | > 77.3 | – | 0.168 | 9.9 | – | 0.796 | 5
HPLYNMSLLKHQSLR | 0.232 | 13 | 0.499 | 1.28 | 0.382 | 0.199 | 0.546 | 0.472 | > 14.9 | 0.0084 | 0.219 | –
ITDSRVLERYLLEAK | 1.57 | 6.5 | 1.3 | 7.5 | 0.967 | > 78.9 | > 14.7 | 0.018 | > 42.2 | – | – | 5.28
KLKLYTGEATRTGDR | 0.178 | 118 | 0.015 | 8.23 | 2.01 | > 78.9 | 0.841 | 0.018 | 5.3 | 14.8 | – | –
SNLELLRISLLLIQS | 0.072 | 43.5 | – | 0.642 | > 33.3 | 3.42 | – | 0.059 | > 91.9 | – | 50.1 | 23.7
TSITSLYQLENYTG | – | 96.7 | 1.63 | 8.37 | 14.6 | 46.3 | > 17.1 | – | 92.3 | 1.66 | 16.1 | 1.01
TSITSLYQLENYTN | – | 81.3 | – | 6.06 | 26.8 | 9.95 | > 17.1 | 0.099 | > 95.2 | – | 6.05 | 1.1
